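The compound was tested at five concentrations on cells cultured in 96-well plates, with a 48-hour exposure period. GI50 = concentration required for 50% inhibition of growth.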 Active and inactive are the calls of the source. No stated cut-off is given here; in the data, active = GI50 up to about 1.1 µM and inactive = higher.
Columns and labels:
Test in all cases: growth of human tumour cells (NCI), 48 h
A498 = tested on: A498
ACHN = tested on: ACHN
CAKI-1 = tested on: CAKI-1
CCRF-CEM = tested on: CCRF-CEM
HCT-116 = tested on: HCT-116
HCT-15 = tested on: HCT-15
HOP-62 = tested on: HOP-62
IGROV-1 = tested on: IGROV-1
K562 = tested on: K562
M14 = tested on: M14
MOLT-4 = tested on: MOLT-4
NCI-H23 = tested on: NCI-H23
RXF 393 = tested on: RXF 393
SF-268 = tested on: SF-268
SF-539 = tested on: SF-539
SK-MEL-5 = tested on: SK-MEL-5
SK-OV-3 = tested on: SK-OV-3
SN12C = tested on: SN12C
TK-10 = tested on: TK-10
UACC-257 = tested on: UACC-257

Compound | GI50 (A498) | GI50 (ACHN) | GI50 (CAKI-1) | GI50 (CCRF-CEM) | GI50 (HCT-116) | GI50 (HCT-15) [µM] | GI50 (HOP-62) | GI50 (IGROV-1) | GI50 (K562) | GI50 (M14) | GI50 (MOLT-4) | GI50 (NCI-H23) | GI50 (RXF 393) | GI50 (SF-268) | GI50 (SF-539) | GI50 (SK-MEL-5) | GI50 (SK-OV-3) | GI50 (SN12C) | GI50 (TK-10) | GI50 (UACC-257)
COc1ccc(NC(=O)CC(=O)N2N=C(C)C(/N=N\c3ccc(S(=O)(=O)c4ccc(/N=N/C5C(=O)N(C(=O)CC(=O)Nc6ccc(OC)cc6)N=C5C)cc4)cc3)C2=O)cc1 (stereo not given) | > 100 µM (inactive) | > 100 µM (inactive) | > 100 µM (inactive) | > 100 µM (inactive) | > 100 µM (inactive) | > 100 | 45.6 µM (inactive) | 55.1 µM (inactive) | 50 µM (inactive) | > 100 µM (inactive) | > 100 µM (inactive) | > 100 µM (inactive) | 31.3 µM (inactive) | 35.9 µM (inactive) | > 100 µM (inactive) | 63 µM (inactive) | > 100 µM (inactive) | > 100 µM (inactive) | > 100 µM (inactive) | > 100 µM (inactive)
COc1cc(O)cc(O)c1C(=O)CC(Cl)(Cl)Cl | > 100 µM (inactive) | > 100 µM (inactive) | > 100 µM (inactive) | > 100 µM (inactive) | > 100 µM (inactive) | > 100 | > 100 µM (inactive) | > 100 µM (inactive) | > 100 µM (inactive) | > 100 µM (inactive) | > 100 µM (inactive) | > 100 µM (inactive) | > 100 µM (inactive) | > 100 µM (inactive) | > 100 µM (inactive) | > 100 µM (inactive) | > 100 µM (inactive) | > 100 µM (inactive) | > 100 µM (inactive) | > 100 µM (inactive)
Sc1nnc(-c2ccnc(-c3nnc(S)[nH]3)c2)[nH]1 | > 100 µM (inactive) | > 100 µM (inactive) | > 100 µM (inactive) | > 100 µM (inactive) | > 100 µM (inactive) | > 100 | > 100 µM (inactive) | > 100 µM (inactive) | > 100 µM (inactive) | > 100 µM (inactive) | > 100 µM (inactive) | > 100 µM (inactive) | > 100 µM (inactive) | > 100 µM (inactive) | > 100 µM (inactive) | > 100 µM (inactive) | > 100 µM (inactive) | > 100 µM (inactive) | > 100 µM (inactive) | > 100 µM (inactive)
S=c1sc2c(s1)SC(c1ccccc1)CS2 (stereo not given) | > 100 µM (inactive) | – | 1 µM (active) | > 100 µM (inactive) | > 100 µM (inactive) | > 100 | > 90.8 µM (inactive) | > 100 µM (inactive) | > 100 µM (inactive) | – | > 100 µM (inactive) | > 100 µM (inactive) | 25.1 µM (inactive) | > 100 µM (inactive) | > 100 µM (inactive) | > 100 µM (inactive) | > 100 µM (inactive) | > 100 µM (inactive) | – | > 21.7 µM (inactive)
O=S(=O)(C1=CC(S(=O)(=O)c2ccccc2)CN(Cc2ccccc2)C1c1cccc2ccccc12)c1ccccc1 (stereo not given) | > 69 µM (inactive) | > 69 µM (inactive) | 20.7 µM (inactive) | > 69 µM (inactive) | > 69 µM (inactive) | > 69 | > 69 µM (inactive) | > 69 µM (inactive) | > 69 µM (inactive) | > 69 µM (inactive) | > 69 µM (inactive) | > 69 µM (inactive) | 25.4 µM (inactive) | > 69 µM (inactive) | > 69 µM (inactive) | > 69 µM (inactive) | > 69 µM (inactive) | > 69 µM (inactive) | > 69 µM (inactive) | > 69 µM (inactive)
Oc1nc2ccccc2c2oc3ccccc3c12 | > 100 µM (inactive) | > 100 µM (inactive) | > 100 µM (inactive) | > 100 µM (inactive) | – | > 100 | 88.9 µM (inactive) | > 100 µM (inactive) | > 100 µM (inactive) | > 100 µM (inactive) | > 100 µM (inactive) | > 100 µM (inactive) | 82 µM (inactive) | > 100 µM (inactive) | > 100 µM (inactive) | > 100 µM (inactive) | 76 µM (inactive) | > 100 µM (inactive) | > 100 µM (inactive) | > 100 µM (inactive)
CNC(=O)OC(C)CN1c2ccccc2Sc2ccc(Cl)cc21 (stereo not given) | > 10 µM (inactive) | > 10 µM (inactive) | > 10 µM (inactive) | > 10 µM (inactive) | > 10 µM (inactive) | > 10 | > 10 µM (inactive) | > 10 µM (inactive) | > 10 µM (inactive) | > 10 µM (inactive) | > 10 µM (inactive) | > 10 µM (inactive) | > 10 µM (inactive) | > 10 µM (inactive) | > 10 µM (inactive) | > 10 µM (inactive) | > 10 µM (inactive) | > 10 µM (inactive) | > 10 µM (inactive) | –

Source: ChEMBL document CHEMBL1201862, “PubChem BioAssay data set” (2004)
